Assay results reported in PMC5766510, “Development of a PET radioligand for potassium channels to image CNS demyelination” (Scientific Reports, 2018).
Where two headings read alike, the source gives them in different places.

Key:
[1] = target: non-inactivating Shaker channel from D. melanogaster (Drosophila melanogaster, UniProt P08510, DEL6-46); test: cell-based; conditions: relative K^+ current at +20 mV, Hill equation fit; read-out: Half-maximal inhibitory concentration (IC50)
Procedure: See SI for additional details.
(§1) CI95 = [Upper Limit. Lower Limit]; where Upper Limit = 10^(logEC50+s.d.) and Lower Limit = 10^(logEC50−s.d.). […]
exchanging the external solution (top and guard chambers) several times. After application, cells were voltage-clamped at least 5 min at 0mV, then voltage-clamped at -80mV for 1-2 min.
K+ currents were generated by applying series of 50 ms pulses from -70 mV to +40 mV in increments of 10 mV. The effect of the drug was assessed by measuring the relative intensity of the K+ current before and after applying varying drug concentration at a constant voltage (typically +20 mV) and at the end of the test-pulse. Data acquisition and analysis of the traces was performed using Gpatch software (Department of Anesthesiology, University of California, […]
Los Angeles). […]

[2] = tested on: K^+ channels in explanted mouse optic nerves; test: Compound action potential (CAP) of dissected mouse optic nerves; conditions: for EC50: increase of maximum CAP amplitude, dysmyelinated (Shiverer) optic nerves, 22.2 °C, read-out: Half-maximal effective concentration (EC50)
Procedure: Therefore, we tested the effects of these compounds on the compound action potential (CAP) of dysmyelinated optic nerves from control and Shiverer mice (Fig. 2E).
Optic nerves were dissected from 12–16 week old Shiverer (Mbp^shi/shi) and control mice (Mbp^+/shi and Mbp^+/+). Compound action potentials (CAP) were recorded using suction electrodes as described by Stys et al.[91]. See SI for additional details.
as §1
Dissection of optic nerves: Optic nerves were dissected from 12-16 week old Shiverer (Mbpshi/shi) and control mice (Mbp+/shi and Mbp+/+). Mice were euthanized by CO2 overdose and the optic nerves were quickly dissected between the eyeball and the optic chiasm. The nerves […]
Optic nerve electrophysiology: Compound action potentials (CAP) from dysmyelinated nerves (Shiverer mice, Mbpshi/shi) and myelinated nerves (litermate controls, Mbp+/shi and Mbp+/+) were […]
between two suction electrodes (stimulus and recording electrodes) forming a tight seal on each end. Two additional electrodes were placed in the bath for reference. A supramaximal pulse (250 mV, 20 μs) was applied at the stimulating end of the nerve. The resulting CAP was amplified from the recording electrode using a high impedance low-noise amplifier (EG&G Princeton Applied Research Corporation) sampled at 100 kHz and filtered at 10 kHz. To assess […]
concentrations to the recording chamber after the CAP was allowed to stabilize for 5 min while […]
pulsing repeatedly. After each measurement, the chamber was washed for 5 min (flow 1 […]
mL/min) with oxygenated aCSF. […]
conduction and the temperature was monitored throughout the experiment. CAP recordings were acquired with a SBC6711 board (Innovative Integration) controlled by in-house written software. Analysis of the traces was done using an in-house software. The half-maximal […]
amplitude vs. concentration and fitted to the Hill equation using Origin. […]
Compound action potential of nerve recorded by suction electrode: a theoretical and experimental analysis. […]

[3] = Partition coefficient octanol-water (logD); assay type: physicochemical
Procedure: The partition coefficient octanol-water at pH 7.4 was measured by adding 0.1 mg of the compound to a 10 mL 50:50 mixture of octanol:PBS. The vial was shaken vigorously followed by 1 min centrifugation at 1,000 g to separate the phases. The drug concentration in each phase of the drug was calculated from the area under the peak on reverse phase HPLC (10 μL sample) using a calibration curve.

C57Bl/6 J mice = test: In vivo effects (signs of neuroexcitation) after intraperitoneal injection; conditions: mouse, different doses
Procedure: In this experiment, we injected each drug intraperitoneally at different concentrations into mice and looked for signs of neuroexcitation (Fig. 3B).
10-week-old female C57Bl/6 J mice were given an intraperitoneal injection of the drug under investigation and monitored continuously for 4 h. […] At least 72 h passed between injections to the same mice.

[4] = tested on: voltage-gated K^+ channels; test: PET/CT imaging in healthy rats; assay type: in vivo, rat
Text: In order to evaluate the potential use of [^18F]3-F-4-AP as a PET tracer for the brain, we conducted PET combined with computed tomography (PET/CT) imaging in healthy rats after tail vein injection of [^18F]3-F-4-AP (0.15–0.30 μCi/g). We chose rats instead of mice because their larger brain size allows better spatial resolution. […] In order to overcome the limited intrinsic resolution of PET, we conducted ex vivo autoradiography in rats injected with [^18F]3-F-4-AP (1–2 μCi/g).
PET/CT imaging studies were carried out on a Trifoil Triumph™ Trimodality Preclinical microPET/SPECT/CT Imaging System (Norridge, CA) equipped with a X-PET detector constructed from BGO crystals. Rats were anesthetized with a mixture of 2% isoflurane and […] and kept under anesthesia throughout the whole procedure. A CT image was acquired first (at 40 kV, 140-uA beam current, and 256 projections, approx. 5 min). After the CT, 50–150 µCi of [^18F]3-F-4-AP was infused as a bolus through a tail vein injection port and a 25, 30 or 90 min list-mode PET scan performed. PET data are acquired using a sensitivity 5.9%, 250- to 750-keV energy window and 12-ns timing window in list-mode format with spatial resolution of 1.6–2.0 mm (FWHM), which can be binned into 3-dimensional (3D) sinograms corresponding to total and true events, respectively. Images were reconstructed using Fourier rebinning followed by a 2-dimensional ordered-subsets expectation maximization algorithm (OSEM) (4 iterations with 15 subsets). Reconstructed images were processed by using VivoQuant (inviCRO, LLC, Boston) version 2.1. Time activity curves were generated by processing the PET data in 5 min frames.

[5] = tested on: voltage-gated K^+ channels; test: PET imaging in healthy Rhesus macaques; assay type: in vivo, Rhesus monkeys (macaca mulatta)
Procedure: Whole body PET/CT imaging was carried out on a Siemens mCT PET/CT. Monkeys were sedated with ketamine and intubated. Following intubation monkeys were placed in prone position on the scanner bed face forward with their head immobilized in a stereotaxic frame. The animals were then anesthetized with 1% isoflurane and kept under anesthesia throughout the whole procedure. A CT image was acquired first (approx. 5 min). After the CT, 5 mCi in 8 mL of saline of [^18F]3-F-4-AP was infused as a bolus through the cubital vein. Scans were obtained in list mode and reconstructed with a 3D ordinary Poisson OSEM algorithm as 30 frames of data (2 × 15 secs, 4 × 30 secs, 8 × 60 secs, 8 × 120 secs, 8 × 240 secs). All activities were decay-corrected to the time of injection of the radiopharmaceutical. Reconstructed images were processed using VivoQuant. ROIs for the major organs were hand drawn based on the CT and used to calculate time-activity curves.
Focused high-resolution brain imaging in Rhesus macaques: brain PET imaging was carried out on a Siemens HRRT PET scanner. Monkeys were sedated with ketamine and intubated. Following intubation monkeys were placed in prone position on the scanner bed face forward with their head immobilized in a stereotaxic frame. The animals were then anesthetized with 1% isoflurane and kept under anesthesia throughout the whole procedure. Monkeys received 5 mCi of [^18F]3-F-4-AP as a bolus through the cubital vein. Scans were obtained in list mode and reconstructed with a 3D ordinary Poisson OSEM algorithm as […] frames of data (8 × 15 secs, 8 × 30 secs, 16 × 60 secs, 16 × 120 secs, 16 × 240 secs). All activities were decay-corrected to the time of injection of the radiopharmaceutical. Reconstructed images were processed using VivoQuant. The Rhesus brain atlas from VivoQuant was fitted to the data and used to calculate time-activity curves for 43 different brain regions.

in vitro = conditions: mouse
[6] = Stability in mouse plasma; conditions: after 1 h
[7] = Parallel artificial membrane permeability assay (PAMPA); conditions: for Papp: PAMPA
[8] = mouse, 1 h
[9] = estimated; cited from earlier work
[10] = Organ distribution of PET tracer in mice by gamma counting; assay type: in vivo; conditions: mouse, 30 min post intravenous injection, n = 4
Procedure: Once we had generated the ^18F-labeled drug, we evaluated the uptake of the tracer in mouse blood, brain, liver and kidneys 30 min and 2 h post intravenous administration using automatic gamma counting. […] The uptake in the brain 30 min post injection was higher than blood (standard uptake value (SUV) = 4.71 ± 0.81 vs. 3.27 ± 0.35, n = 4, P = 0.024) providing a suitable time window to conduct PET imaging studies.
50–60 uCi of the [^18F]3-F-4-AP tracer was injected via tail vein to eight 8-week-old female B6 albino mice. At the specified times, the mice were euthanized by anesthetic overdose. Following euthanasia blood was collected by cardiac puncture and transferred to EDTA coated tubes. Other organs (brain, liver and kidneys) were collected by dissection and transferred to glass tubes. Radioactivity was measured using an automatic gamma counter (^18F protocol) and corrected for organ weight and injected dose. Using the original tracer solution, 8 standard solutions ranging from 20 μCi to 10^−5 μCi were prepared, analyzed by gamma counting and used as a calibration curve to correlate peak area of the samples to concentration. SUV was calculated as SUV = (dose organ/organ weight)/(dose injected/body weight) with dose corrected for decay.

[11] = tested on: voltage-gated K^+ channels; test: Detection of demyelination by PET in LPC-injected rats; assay type: in vivo, rat; conditions: PET 0-25 min
Procedure: After conducting PET imaging with [^18F]3-F-4-AP in healthy rats, we sought to evaluate the capability of this tracer to detect demyelination using the LPC-injection model. The main advantages of this model are that the localization of the lesion is known, that the time course of demyelination is well established, that there is no inflammation or disruption of the BBB, and that the signal in the lesioned area can be directly compared to the contralateral control area[69]. […] Rats were injected with 3 μL of saline (control group) or 1% LPC in saline (demyelination group) on the right side of the cerebellum, targeting the cerebellar white matter. Seven days post injection, which corresponds to the peak of demyelination, the animals were scanned using PET (0–25 min). Several hours after the PET scan, the animals were reinjected with [^18F]3F4AP and their brains studied by ex vivo autoradiography as previously described. Finally, following autoradiography the same tissue sections were stained with LFB. To analyze the data, we placed a spherical voxel of ~1.5 mm radius centered at the injection coordinates and compared the signal in this region with that of an equal size region at the contralateral hemisphere (Fig. 6A). […] Furthermore, there was excellent correlation between PET, ex vivo autoradiography and histological staining for myelin (Fig. 6C). For one animal, we performed serial autoradiography and staining throughout the whole cerebellum (Sup. Fig. 2). As shown in this figure, it is possible to clearly delineate where the lesion starts and finishes based on the autoradiographic signal.
A power analysis (power 0.8, α = 0.05) based on the autoradiography results was used to determine the number of rats needed to detect a statistically significant change in signal. Randomly selected rats were injected with lysolecithin or saline intracranially as described above. 0–25 min dynamic PET scan was performed 6–8 days post intracranial injection (peak of demyelination) after administration of 0.3–0.5 μCi/g. Within 24 h of the PET scan, the rats received a second dose of tracer (1–2 uCi/g), the animals were sacrificed 25 min post injection and their brains processed for autoradiography as described above. Image analyst was not blind to the treatment group. Post autoradiography, LFB staining was performed to assess demyelination. Animals showing physical damage to the brain due to the injection were excluded from the study. Brain ROI analysis was performed using reference atlas with VivoQuant version 2.1 (inviCRO, LLC, Boston).

[12] = LPC-injected rats, 7 days post injection, n = 4
[13] = saline (vehicle only)-injected rats, n = 3

Chain of non-inactivating Shaker channel from D. melanogaster (P08510 other isoform, or with tags, fused parts or gaps DEL6-46): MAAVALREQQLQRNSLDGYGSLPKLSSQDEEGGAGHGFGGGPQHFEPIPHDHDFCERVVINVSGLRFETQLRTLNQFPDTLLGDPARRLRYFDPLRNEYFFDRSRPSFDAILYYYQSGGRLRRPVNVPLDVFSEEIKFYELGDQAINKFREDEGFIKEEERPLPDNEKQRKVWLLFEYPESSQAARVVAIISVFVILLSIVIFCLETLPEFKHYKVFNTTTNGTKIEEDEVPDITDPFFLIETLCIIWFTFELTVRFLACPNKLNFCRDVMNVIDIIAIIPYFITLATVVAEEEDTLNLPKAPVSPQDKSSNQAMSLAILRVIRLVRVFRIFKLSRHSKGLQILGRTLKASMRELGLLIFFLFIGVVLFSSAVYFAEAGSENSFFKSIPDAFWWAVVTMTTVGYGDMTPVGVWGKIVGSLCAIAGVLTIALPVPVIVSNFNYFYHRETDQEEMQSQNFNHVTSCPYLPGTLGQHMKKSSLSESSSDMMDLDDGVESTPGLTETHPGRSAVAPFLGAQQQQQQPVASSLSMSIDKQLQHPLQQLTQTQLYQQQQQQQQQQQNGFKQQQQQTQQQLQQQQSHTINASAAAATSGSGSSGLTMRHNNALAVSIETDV

Nc1ccncc1F [3-F-4-AP, 3-fluoro-4-aminopyridine]
IC50 [1]: 250 µM | EC50 [2]: 96 µM | logD ([3]; pH 7.4, pH 7.4, n = 3, read-out: logD: experimental partition coefficient octanol:water): 0.63 | signs of neuroexcitation, summary in words relative to 4-AP (C57Bl/6 J mice): active at the same concentration as 4-AP and to act faster | effect of high doses of non-radiolabeled drug (self-block) ([4]; rats): caused the breathing rate to increase dramatically, possibly due to seizures | effect of cold drug (self-block) on brain signal ([5]; Rhesus macaques, 0.1 mg/kg): no changes in brain signal or time activity curves were detected | estimated seizure dose in monkeys ([5]; estimated based on the rodent data): 1.5 to 3.0 mg/kg | half-life (in vitro; microsomes): 2.4 ± 0.183 h | remaining in plasma [6]: > 90% | Papp [7]: 1.56 ± 0.06 ×10⁻⁶ cm/s | times more permeable than 4-AP ([7]; ratio of Pe): 6.6 times

Nc1ccncc1 [4-AP, 4-aminopyridine]
increases of the CAP amplitude ([2]; dysmyelinated nerves): 2–4 fold | EC50 [2]: 59.2 µM | increases in amplitude and duration of the action potential ([2]; normally myelinated nerves): < 5% | logD: experimental partition coefficient octanol:water ([3]; pH 7.4): 0.21 | logD ([3]; pH 7.4, logD: experimental partition coefficient octanol:water): 0.23 | remaining in plasma [8]: > 90% | half-life (in vitro; liver microsomes): 0.883 ± 0.167 h | concentration in the cerebrospinal fluid of patients taking the drug [9]: around 50 nM | Papp [7]: 0.236 ± 0.003 ×10⁻⁶ cm/s

Nc1ccncc1[18F] [[^18F]3-F-4-AP]
standard uptake value (SUV) in blood [10]: 3.27 ± 0.35 | standard uptake value (SUV) in brain [10]: 4.71 ± 0.81 | time of peak in brain time-activity curve ([4]; healthy rats, 0-90 min scan): ≤ 5 min | SUV in cerebellum ([4]; healthy rats, 0 to 30 min): 2.09 ± 0.44 | SUV in cortex ([4]; healthy rats, 0 to 30 min): 3.24 ± 0.70 | mean SUV for the whole brain ([4]; healthy rats, 0 to 30 min, n = 3): 2.91 ± 0.65 | defluorination in vivo ([4]; rats, no radioactivity in skull, teeth or bone): does not undergo defluorination in vivo | SUV, control side of cerebellum [11, 12]: 2.60 ± 0.21 | SUV, injected side of cerebellum [11, 12]: 3.54 ± 0.53 | SUV, control side of cerebellum [11, 13]: 2.67 ± 0.77 | SUV, injected side of cerebellum [11, 13]: 2.59 ± 0.78 | peak SUV in selected brain regions ([5]; Rhesus macaques): 3.2–5.5 | time of peak SUV in selected brain regions ([5]; Rhesus macaques): 2 to 5 min | peak SUV for the whole brain ([5]; Rhesus macaques, within the first five minutes): around 4 | defluorination in vivo ([5]; Rhesus macaques, lack of bone uptake): not defluorinated in vivo
